“Also recorded” adds a separate entry of the source.
Target: dopamine transporter (DAT) (Rattus norvegicus (Rat), UniProt P23977)
Assay: [3H]dopamine (DA) uptake inhibition in rat brain (caudate) synaptosomes
Assay type: biochemical
Conditions: for One-Site Emax / Two-Site Emax-1 / Two-Site Emax-2: [3H]DA uptake; for One-Site Emax: one-component fit; for Two-Site Emax-1 / Two-Site Emax-2: two-component fit; for Two-Site Emax-1: component 1; for Two-Site Emax-2: component 2; for DA Uptake Emax / EC50: rat caudate synaptosomes, 5 nM [3H]dopamine, mean ± SD
Method: Uptake inhibition assay for the dopamine transporter was conducted in rat brain synaptosomes as described elsewhere with minor modifications (Rothman et al., Synapse 39, 32-41 (2001)). Freshly removed caudate was homogenized in 10% ice-cold sucrose with 12 strokes of a hand-held Potter-Elvehjem homogenizer followed by centrifugation at 1000×g for 10 min. The supernatants were saved on ice and used immediately. Transporter activity was assessed using 5 nM [^3H]dopamine. The assay buffer was Krebs-phosphate buffer containing 154.4 mM NaCl, 2.9 mM KCl, 1.1 mM CaCl2, 0.83 mM MgCl2, 5 mM glucose, 1 mg/mL ascorbic acid, and 50 μM pargyline. The selectivity of the uptake assay for DAT was optimized by including 100 nM citalopram and 100 nM desipramine as blockers of SERT and NET in the sucrose solution and assay buffer. Uptake inhibition assays were conducted at 25° C. and were initiated by adding 100 μl of tissue to 900 μL assay buffer containing test drug and [^3H]dopamine. Test drugs were diluted in assay buffer containing 1 mg/mL bovine serum albumin. Nonspecific uptake was measured by incubating in the presence of 10 μM indatraline. The reactions were stopped after 15 minutes by rapid vacuum filtration with a cell harvester (BRANDEL) over GF/B filters (Whatman) presoaked in wash buffer maintained at 25° C. (10 mM Tris-HCl, pH 7.4/150 mM NaCl). Filters were rinsed with 6 mL wash buffer and retained tritium was quantified by a MicroBeta liquid scintillation counter (PerkinElmer) after overnight extraction in 0.6 mL of liquid scintillation cocktail (Cytoscint, ICN). The data from three experiments were pooled and fit to a dose-response curve equation (using Kaleidagraph), to yield an Emax and EC50 value.
All of the test compounds were synthesized as described herein. Next, 8-point dose-response curves were generated for each compound (1-20,000 nM) in the [^3H]DA uptake assay. The data from three experiments were pooled and fit to a dose-response curve equation (using KaleidaGraph; Synergy Software, Reading, Pa.) to yield an Emax and IC50 value. […] Selected compounds were also tested for their ability to inhibit [^3H]WIN35428 binding to rat caudate DAT.

dopamine transporter (DAT), sequence (P23977 whole entry): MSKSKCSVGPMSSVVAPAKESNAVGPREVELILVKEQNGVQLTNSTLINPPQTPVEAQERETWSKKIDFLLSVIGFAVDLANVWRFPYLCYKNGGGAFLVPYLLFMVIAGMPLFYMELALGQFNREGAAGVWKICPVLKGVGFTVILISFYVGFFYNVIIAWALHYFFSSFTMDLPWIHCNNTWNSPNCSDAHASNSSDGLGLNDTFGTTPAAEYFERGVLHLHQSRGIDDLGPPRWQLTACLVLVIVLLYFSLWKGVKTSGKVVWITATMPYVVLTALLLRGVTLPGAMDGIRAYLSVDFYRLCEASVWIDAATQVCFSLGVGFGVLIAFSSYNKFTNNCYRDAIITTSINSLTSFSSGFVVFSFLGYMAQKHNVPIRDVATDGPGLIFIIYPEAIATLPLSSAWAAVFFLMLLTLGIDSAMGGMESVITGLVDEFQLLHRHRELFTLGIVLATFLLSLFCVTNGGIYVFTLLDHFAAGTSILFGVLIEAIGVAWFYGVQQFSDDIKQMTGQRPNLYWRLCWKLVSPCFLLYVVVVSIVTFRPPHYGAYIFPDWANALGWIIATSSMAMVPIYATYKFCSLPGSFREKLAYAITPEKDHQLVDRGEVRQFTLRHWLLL

| SMILES | Efficacy of [3H]DA (DAT) uptake inhibition, in words | One-Site Emax [% I] | Two-Site Emax-1 | Two-Site Emax-2 | DA Uptake Emax [% I] | EC50 [nM] |
| --- | --- | --- | --- | --- | --- | --- |
| CN(C)c1ccc(-c2nc(NCCc3ccccc3)c3ccccc3n2)cc1 [Compound 36, 2-(4-(dimethylamino)phenyl)-N-phenethylquinazolin-4-amine] | fully inhibits; also recorded: full-efficacy | 100 ± 1.5 | 76 ± 54 % I | 27 ± 53 % I | 100 ± 1 | 156 ± 12 |
| CS(=O)(=O)Nc1ccc(-c2nc(NCC(c3cccnc3)c3ccc[nH]3)c3ccccc3n2)cc1 (stereo not shown) [Compound 30, N-(4-(4-((2-(pyridin-3-yl)-2-(1H-pyrrol-2-yl)ethyl)amino)quinazolin-2-yl)phenyl)methanesulfonamide] |  |  |  |  | 79 ± 3 | 202 ± 42 |
| c1ccc(C(CNc2nc(-c3ccc4c(c3)CCN4)nc3ccccc23)c2ccccc2)cc1 [SRI-29986] | partial inhibitors | 75 ± 3 | 37 × 10^8 ± 2.7 × 10^8 % I | 37 × 10^8 ± 0.7 × 10^8 % I |  |  |
| CN(C)c1ccc(-c2nc(NCC(c3ccncc3)c3ccncc3)c3ccccc3n2)cc1 [Compound 34, N-(2,2-di(pyridin-4-yl)ethyl)-2-(4-(dimethylamino)phenyl)quinazolin-4-amine] |  |  |  |  | 78 ± 3 | 21 ± 5 |
| CC(C)C(CNc1nc(-c2ccc(NS(C)(=O)=O)cc2)nc2ccccc12)c1ccccc1 (stereo not shown) [Compound 45, N-(4-(4-((3-methyl-2-phenylbutyl)amino)quinazolin-2-yl)phenyl)methanesulfonamide] |  |  |  |  | 78 ± 4 | 20 ± 6 |
| CN(C)c1ccc(-c2nc(NCC(C)(c3ccccc3)c3ccccc3)c3ccccc3n2)cc1 [Compound 38, 2-(4-(dimethylamino)phenyl)-N-(2,2-diphenylpropyl)quinazolin-4-amine] |  |  |  |  | 68 ± 3 | 15 ± 4 |
| CN(C)c1ccc(-c2nc(NCC(Oc3ccccc3)c3ccccc3)c3ccccc3n2)cc1 (stereo not shown) [Compound 48, 2-(4-(dimethylamino)phenyl)-N-(2-phenoxy-2-phenylethyl)quinazolin-4-amine] |  |  |  |  | 72 ± 3 | 42 ± 10 |
| CS(=O)(=O)Nc1ccc(-c2nc(NCC(Oc3ccccc3)c3ccccc3)c3ccccc3n2)cc1 (stereo not shown) [Compound 49, N-(4-(4-((2-phenoxy-2-phenylethyl)amino)quinazolin-2-yl)phenyl)methanesulfonamide] |  |  |  |  | 67 ± 2 | 30 ± 5 |
| CN(C)c1ccc(-c2nc(NCC(c3ccccc3)C3CCCCC3)c3ccccc3n2)cc1 (stereo not shown) [Compound 7, N-(2-cyclohexyl-2-phenylethyl)-2-(4-(dimethylamino)phenyl)quinazolin-4-amine] |  |  |  |  | 71 ± 3 | 46 ± 10 |
| CC(C)C(CNc1nc(-c2ccc(N(C)C)cc2)nc2ccccc12)c1ccccc1 (stereo not shown) [Compound 44, 2-(4-(dimethylamino)phenyl)-N-(3-methyl-2-phenylbutyl)quinazolin-4-amine] |  |  |  |  | 84 ± 5 | 30 ± 10 |
| CN(C)c1ccc(-c2nc(NCC(c3ccccc3)c3ccncc3)c3ccccc3n2)cc1 (stereo not shown) [Compound 11, 2-(4-(Dimethylamino)phenyl)-N-(2-phenyl-2-(pyridin-4-yl)ethyl)quinazolin-4-amine] |  |  |  |  | 77 ± 2 | 13 ± 3 |
| CN(C)c1ccc(-c2nc(NCC(c3ccccn3)c3ccc[nH]3)c3ccccc3n2)cc1 (stereo not shown) [Compound 33, 2-(4-(dimethylamino)phenyl)-N-(2-(pyridin-2-yl)-2-(1H-pyrrol-2-yl)ethyl)quinazolin-4-amine] |  |  |  |  | 89 ± 4 | 65 ± 18 |
| CN(C)c1ccc(-c2nc(NCC(c3ccccc3)c3cccnc3)c3ccccc3n2)cc1 (stereo not shown) [Compound 24, 2-(4-(dimethylamino)phenyl)-N-(2-phenyl-2-(pyridin-3-yl)ethyl)quinazolin-4-amine] |  |  |  |  | 79 ± 3 | 24 ± 5 |
| CS(=O)(=O)Nc1ccc(-c2nc(NCC(c3ccccc3)c3ccc[nH]3)c3ccccc3n2)cc1 (stereo not shown) [Compound 15, N-(4-(4-((2-phenyl-2-(1H-pyrrol-2-yl)ethyl)amino)quinazolin-2-yl)phenyl)methanesulfonamide] |  |  |  |  | 63 ± 2 | 43 ± 8 |
| CC(CNc1nc(-c2ccc(NS(C)(=O)=O)cc2)nc2ccccc12)(c1ccccc1)c1ccccc1 [Compound 39, N-(4-(4-((2,2-diphenylpropyl)amino)quinazolin-2-yl)phenyl)methanesulfonamide] |  |  |  |  | 67 ± 2 | 16 ± 3 |
| CS(=O)(=O)Nc1ccc(-c2nc(NC(Cc3ccccc3)c3ccccc3)c3ccccc3n2)cc1 (stereo not shown) [Compound 41, N-(4-(4-((1,2-diphenylethyl)amino)quinazolin-2-yl)phenyl)methanesulfonamide] |  |  |  |  | 69 ± 3 | 50 ± 14 |
| CN(C)c1ccc(-c2nc(NCC(c3ccccc3)N3CCOCC3)c3ccccc3n2)cc1 (stereo not shown) [Compound 18, 2-(4-(dimethylamino)phenyl)-N-(2-morpholino-2-phenylethyl)quinazolin-4-amine] | partially inhibits | 75 ± 5 | 57 ± 2 % I | 42 ± 4 % I | 75 ± 5 | 15 ± 7 |
| CN(C)c1ccc(-c2nc(NCC(c3ccccc3)n3ccnc3)c3ccccc3n2)cc1 (stereo not shown) [Compound 13, N-(2-(1H-imidazol-1-yl)-2-phenylethyl)-2-(4-(dimethylamino)phenyl)quinazolin-4-amine] |  |  |  |  | 86 ± 3 | 138 ± 21 |
| Cc1cc(N(C)C)ccc1-c1nc(NCC(c2ccccc2)c2ccc(CO)[nH]2)c2ccccc2n1 (stereo not shown) [Compound 28, (5-(2-((2-(4-(dimethylamino)-2-methylphenyl)quinazolin-4-yl)amino)-1-phenylethyl)-1H-pyrrol-2-yl)methanol] |  |  |  |  | 84 ± 5 | 18 ± 7 |
| CS(=O)(=O)Nc1ccc(-c2nc(NCC(c3ccncc3)c3ccncc3)c3ccccc3n2)cc1 [Compound 35, N-(4-(4-((2,2-di(pyridin-4-yl)ethyl)amino)quinazolin-2-yl)phenyl)methanesulfonamide] |  |  |  |  | 70 ± 2 | 47 ± 10 |
| CN(C)c1ccc(-c2nc(NCC(c3ccccc3)c3ccc[nH]3)c3ccccc3n2)cc1 (stereo not shown) [Compound 14, 2-(4-(dimethylamino)phenyl)-N-(2-phenyl-2-(1H-pyrrol-2-yl)ethyl)quinazolin-4-amine] |  |  |  |  | 77 ± 4 | 5.6 ± 2.1 |

— patent US10087148B2, “Quinazolines as biogenic amine transport modulators” (THE UNITED STATES OF AMERICA AS REPRESENTED BY THE …, priority 2014, dated 2018)
